Read-outs that look alike come from different tables or passages of the source.
Key:
[1] = MTT cell viability assay on Calu-3 cells after exposure to test solutions; type: cell-based, Human; details: human, 60 min incubation, MTT, relative to negative control, n = 4, read-out: Calu-3 %Viability ± SD; for viability at 60 min, 0.2 % w/v: 0.2% w/v test solution; for viability at 60 min, 1 % w/v: 1.0% w/v test solution
Description: (§1) The Calu-3 cells were used at passages 5–10. They were cultured in 96-well plates (Fisher Scientific) in 1:1 DMEM/F-12 supplemented with 10% FBS, 1% Glutamax®, 100 U/mL penicillin, and […] streptomycin using our previously described method. The tissue culture medium was changed every two days.
(§2) Irritant selection, concentration and exposure time were based on mucociliary clearance time and published work in which the compounds were used. […] In order to provide a basis for comparison with other published work using other models three concentrations of the chemicals were selected (0.2%, 0.4% and 1.0%). To initiate the experiments, the cells were washed 3 times with PBS and allowed to equilibrate in 100 µL of buffered DMEM/F-12 (without phenol red) for 30 min. […] Cells were observed under the microscope for detachment before discarding the test solutions. Subsequently, the effect of the test compounds on the cells was determined using MTT assay.
(§3) Cell viability screening was based on cellular mitochondrial dehydrogenase (MDH) activity, measured by MTT reduction and conversion to blue formazan salt that was quantified after extraction from cells. MTT was used for predicting respiratory irritation because several studies have shown correlation between reduction in cell viability, decrease in epithelial electrical resistance and increases in biomarkers such as IL-1α and IL-1β. Cells grown in 96-well plates were used for the studies. After exposure of the cells to the solution of test compounds, the solutions were discarded and 100 μL of MTT (5.0 mg/mL) added to each well and incubated for 3 h at 37 °C. Subsequently, the MTT solution was removed and replaced with 100 μL isopropyl alcohol. The plates were then wrapped in aluminium foil and incubated for 2 h at 37 °C in order to extract formazan from the cells. Extracted formazan salt was quantified spectrophotometrically at 570 nm using Synergy™ HT multimode microplate reader (BioTek Instruments Incorporated). The absorbance of isopropyl alcohol (100 μL) was used as blank. The reduction of cell viability in treated cells was compared to negative control (cells incubated with DMEM/F-12) and expressed as a percentage.
(§4) Data acceptance criteria, calculation steps, interpretation and prediction model was done using the ECVAM Skin irritation Validation Study as contained in Standard Operating Procedure of Validation of the EpiSkin™ Test Method ^15 min–42 h for the prediction of acute skin irritation of chemicals. This was chosen because the model, as well as the cell viability assay method (MTT) has been accepted by intergovernmental agencies as being able to distinguish between irritants and non-irritants. However, we modified drug exposure time to reflect respiratory route of administration (15–60 min). […] Test compounds with mean relative viability values of 50% and below were considered irritant (I); those above 50% were considered non-irritant (NI) according to the ECVAM protocol.

Calu-3 cells = assay: as above; type: cell-based, Human; details: for Calu-3 model prediction (irritant if viability 50% and below) compared with European Union class / Calu-3 cells killed: 60 min exposure; for Calu-3 model prediction (irritant if viability 50% and below) compared with European Union class: ECVAM protocol; for Calu-3 %Viability ± SD: 60 min incubation, MTT, relative to negative control, n = 4; for Calu-3 cells killed: 0.2% w/v
Description: as §1, §2, §3, §4

[2] = parameters: method as in earlier work; details: ref [19],[20], cited from earlier work
eye = test system: eye; parameters: method as in PMID 12140180; details: ECETOC eye irritation data bank, ref [12], cited from earlier work; for European Union Irritation Class: Non-Irritating / European Union Irritation Class: R41 Risk of Serious Damage to Eye / European Union Irritation Class: R36 Irritating to Eye: tick = compound belongs to this class
Arion lusitanicus = test system: Arion lusitanicus; parameters: method as in Adriaens and Remon (2002) [12]; details: slug mucosal irritation model; ref Adriaens and Remon (2002) [12]; cited from earlier work

Compound	viability at 60 min, 0.2 % w/v ([1]; Calu-3 cells) [%]	viability at 60 min, 1 % w/v ([1]; Calu-3 cells) [%]	Calu-3 model prediction (irritant if viability 50% and below) compared with European Union class (Calu-3 cells; 0.2% w/v test solution)	Calu-3 %Viability ± SD (Calu-3 cells; 0.2% w/v test solution)	Calu-3 model prediction (irritant if viability 50% and below) compared with European Union class (Calu-3 cells; 1.0% w/v test solution)	Log p Octanol–Water [2]	European Union Irritation Class: Non-Irritating (eye)	European Union Class (eye; as listed in Table 2)	European Union Class (eye; as listed in Table 3)	European Union Irritation Class: R41 Risk of Serious Damage to Eye (eye)	Calu-3 %Viability ± SD (Calu-3 cells; 0.2% w/v test solution, listed as acetone)	Calu-3 %Viability ± SD (Calu-3 cells; 1.0% w/v test solution) [%]	Log p Octanol–Water ([2]; listed as acetone)	European Union Irritation Class: R36 Irritating to Eye (eye)	SMI model prediction compared with European Union class (Arion lusitanicus)	viability at 60 min, 1 % w/v [1] [%]	Calu-3 cells killed (Calu-3 cells)	Calu-3 %Viability ± SD (Calu-3 cells; 1.0% w/v test solution, listed as sodium dodecyl sulphate USP)	Calu-3 %Viability ± SD (Calu-3 cells; 1.0% w/v test solution, listed as sodium hydroxide)
CCCC(C)CO (stereo not drawn) [2-Methyl-1-pentanol]	95.3 ± 13.1	2.9 ± 0.2	correctly predicted	95.0 ± 13.1%	false positive	1.75	√	–	–	–	–	–	–	–	–	–	–	–	–
COCC(O)CO (stereo not drawn) [3-Methoxy-1,2-propanediol]	92.6 ± 4.1	90.7 ± 4.3	correctly predicted	–	–	−1.20	√	–	–	–	–	–	–	–	–	–	–	–	–
Nc1ccc(F)cc1 [4-Fluoroaniline]	115 ± 5.9	75.6 ± 10.9	false negatives	–	false negatives	–	–	R41	R41	√	–	–	–	–	–	–	–	–	–
CC(C)=O [Acetone]	–	–	false negative	100.4 ± 13.7%	false negatives	−0.24	–	R36	R36	–	no significant effect on the cell viability	95.4 ± 16.5	negative Log p values	√	false negative	–	–	–	–
CCO [Anhydrous ethanol]	–	–	correctly predicted	99.1 ± 3.9%	–	–	√	–	–	–	–	90.3 ± 8.0	–	–	–	–	–	–	–
CCCCCCCCCCCCCCCC[n+]1ccccc1 [Cetylpyridinium bromide]	8.1 ± 1.1	5.4 ± 0.6	correctly predicted	–	correctly predicted	1.83	–	R41	R41	√	–	–	–	–	correct predictions	< 17	–	–	–
OC1CCCCC1 [Cyclohexanol]	–	–	false negatives	89.9 ± 14.3%	false negatives	1.23	–	R41	R41	√	–	78.7 ± 11.7	–	–	–	–	–	–	–
OCC(O)CO [Glycerol]	85.6 ± 8.7	86.5 ± 7	correctly predicted	–	–	–	√	–	–	–	–	–	–	–	–	–	–	–	–
c1c[nH]cn1 [Imidazole]	–	–	–	–	–	–	–	R41	R41	–	–	–	–	–	–	–	–	–	–
CC(=O)CC(C)C [Methyl isobutyl ketone]	73.2 ± 7.4	90.3 ± 7.1	correctly identified as non-irritant	no significant effect on the cell viability	–	–	√	–	–	–	–	–	–	–	wrongly classified	–	–	–	–
CCCCCCCCCCCCOS(=O)(=O)[O-].[Na+] [Sodium dodecyl sulphate USP]	–	–	correctly predicted	4.3 ± 0.1%	correctly predicted	1.60	–	R36	R36	–	–	9.0 ± 0.1	–	√	over-predictions	–	more than 90%	less than 17%	–
[Na+].[OH-] [Sodium hydroxide]	–	–	–	4.6 ± 0.4%	correctly predicted	0	–	R41	R41	√	–	14.9 ± 1.2	–	–	–	–	about 95%	–	less than 17%
O=C([O-])C(=O)[O-].[Na+].[Na+] [Sodium oxalate]	–	–	false negative	65.4 ± 4.0%	false negatives	–	–	R41	R41	√	–	64.5 ± 11.5	–	–	–	–	–	–	–
Cc1ccccc1 [Toluene]	85.7 ± 13	110 ± 6.6	–	–	–	–	√	–	–	–	–	–	–	–	–	–	–	–	–
PEG 400	–	–	correctly predicted	91.5 ± 4.6%	–	−1.21	√	–	–	–	–	92.2 ± 15.9	–	–	–	–	–	–	–
PEG 600	–	–	correctly predicted	85.9 ± 13.4%	–	−1.21	√	–	–	–	–	81.7 ± 10.8	–	–	–	–	–	–	–
Triton X-100	–	–	correctly predicted	3.5 ± 0.5%	correctly predicted	4.15	–	R36	R36	–	–	–	–	√	over-predictions	–	more than 90%	–	–
Tween 20	–	–	correctly predicted	57.1 ± 8.1%	false positive	2.39	√	–	–	–	–	43.9 ± 2.5	–	–	correct predictions	–	–	–	–

Reference: article PMC4085599, “Preliminary Studies on Validation of Calu-3 Cell Line as a Model for Screening Respiratory Mucosa Irritation and Toxicity” (Pharmaceutics, 2014)
